Assay results published in US8686152B2, “4,4-disubstituted piperidine derivatives useful as inhibitors of dipeptidyl peptidase-1 (DPP-1)” (Janssen Pharmaceutica NV, priority 2010, dated 2014).
Structures can show the parent of a compound that is named as a salt.

Target: T1, recombinant human DPP-1 (Cathepsin C) (Homo sapiens, UniProt P53634)
T1 construct: made in house
Assay: DPP-1 Inhibition Assay (In Vitro), fluorogenic substrate GR-AMC
Assay type: biochemical
Settings: 0.15 nM DPP-1, 10 uM GR-AMC, pH 7.0, room temperature; average value where tested multiple times
Experimental: Test compounds were assessed for DPP-1 (Cathepsin C) inhibitory activity using a fluorogenic substrate, GR-AMC (Glycine-Arginine-amino-4-methylcoumarin, Bachem, I-1215). The amount of amino-methylcoumarin released is proportional to the DPP-1 activity, and the reaction is monitored kinetically with a Molecular Devices plate reader using black 96-well plates.
All compounds were tested under room temperature conditions. The assay buffer consisted of 50 mM HEPES, pH 7.0, 100 mM NaCl, 2 mM glutathione (GSH), and 0.002% TWEEN 20. GSH and TWEEN 20 were added to the buffer fresh daily. Just prior to use, an in-house preparation of recombinant human DPP-1 (240 μM stock, MW 49.6 kD) was diluted 600-fold in assay buffer containing fresh 2 mM dithiothreitol (DTT) to activate the enzyme, then diluted into assay buffer (without DTT) 133-fold for a DPP-1 working solution of 3 nM. Test compounds were diluted in DMSO for 20× their final assay concentrations.
Additions to a 96-well black Costar 3915 plates were as follows: 90 μL of 11 μM GR-AMC, 5 μL test compound (followed by mixing), and 5 μL 3 nM DPP-1 to start the reaction. Fluorescent reactions were monitored kinetically at 360 nm excitation, 440 nm emission on a Molecular Devices Spectramax XPS reader. The Softmax Pro software of the reader determined the initial velocity of the selected data (the first 3-5 minutes of the reaction), and the best linear regression fit of the initial kinetic data. Final assay conditions were 0.15 nM DPP-1, 10 uM GR-AMC, 50 mM HEPES, pH 7.0, 100 mM NaCl, 2 mM GSH, 0.002% TWEEN 20, 1 uM DTT, 5.0% DMSO. Initial velocity rates were plotted vs. test compound concentration by use of a four-parameter logistics equation (nonlinear regression, sigmoidal dose-response (variable slope), with fixed Hill (1.0) using GraphPad Prism® software for determination of DPP-1 IC50. Within-run assay coefficient of variation (CV) was generally <10%; between-run CV <20%.
Representative compounds of the present invention were tested according to the procedure as described above, with results as listed in Table 5, below.

T1 sequence (P53634 25-463): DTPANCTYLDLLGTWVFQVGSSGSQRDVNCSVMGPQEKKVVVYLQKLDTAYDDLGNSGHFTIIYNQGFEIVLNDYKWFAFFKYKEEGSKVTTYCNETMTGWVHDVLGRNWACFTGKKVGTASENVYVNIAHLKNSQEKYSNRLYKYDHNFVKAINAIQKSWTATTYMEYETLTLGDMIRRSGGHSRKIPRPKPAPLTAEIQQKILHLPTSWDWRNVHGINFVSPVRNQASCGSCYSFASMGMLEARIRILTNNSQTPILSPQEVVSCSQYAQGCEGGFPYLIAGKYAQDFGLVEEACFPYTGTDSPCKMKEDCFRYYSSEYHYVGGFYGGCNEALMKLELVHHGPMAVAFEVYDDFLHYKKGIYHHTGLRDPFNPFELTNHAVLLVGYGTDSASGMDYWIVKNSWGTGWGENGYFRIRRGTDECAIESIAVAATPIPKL

Structure (SMILES) | IC50 [nM]
N[C@@H](Cc1c[nH]cn1)C(=O)N1CCC(Cc2ccc(C(F)(F)F)cc2)(C(=O)OCC2CCCCC2)CC1 [Compound 20] | 3100
N[C@@H](Cc1cccs1)C(=O)N1CCC(Cc2ccc(-c3ccc4c(c3)OCO4)cc2)(C(=O)NC2CCCCC2)CC1 [Compound 40] | 35
N[C@@H](Cc1cccs1)C(=O)N1CCC(Cc2ccc(NS(=O)(=O)C(F)(F)F)cc2)(C(=O)NC2CCCCC2)CC1 [Compound 89] | 150
N[C@@H](Cc1cccs1)C(=O)N1CCC(Cc2ccncc2)(C(=O)N2CCOCC2)CC1 [Compound 122] | 1300
N[C@@H](Cc1cccs1)C(=O)N1CCC(Cc2ccc(C(=O)N3CCCC3)cc2)(C(=O)NC2CCCCC2)CC1 [Compound 58] | 73
N[C@@H](Cc1cccs1)C(=O)N1CCC(Cc2ccc([N+](=O)[O-])cc2)(C(=O)NC2CCCCC2)CC1 [Compound 81] | 24
CC(=O)Nc1ccccc1-c1ccc(CC2(C(=O)NC3CCCCC3)CCN(C(=O)[C@@H](N)Cc3cccs3)CC2)cc1 [Compound 45] | 52
N[C@@H](Cc1ccccc1)C(=O)N1CCC(Cc2ccc(-c3ccccc3)cc2)(C(=O)NCC2CCCCC2)CC1 [Compound 108] | ~4000
N[C@@H](Cc1cccs1)C(=O)N1CCC(Cc2ccncc2)(C(=O)OCC2CCCCC2)CC1 [Compound 22] | 93
CSCC[C@H](N)C(=O)N1CCC(Cc2ccc(I)cc2)(C(=O)NC2CCCCC2)CC1 [Compound 73] | 250
N[C@@H](Cc1cccs1)C(=O)N1CCC(Cc2ccc(-c3ccccc3)cc2)(C(=O)NC2CCCCC2)CC1 [Compound 8] | 35
N[C@@H](Cc1cccs1)C(=O)N1CCC(C(=O)N[C@H]2CC[C@H](O)CC2)(c2cc(C(F)(F)F)cc(C(F)(F)F)c2)CC1 [Compound 120] | 230
N[C@@H](Cc1cccs1)C(=O)N1CCC(C(=O)NC[C@H]2CC[C@H](C(=O)O)CC2)(c2ccccc2)CC1 [Compound 112] | 200
CCC[C@H](N)C(=O)N1CCC(Cc2cccnc2)(C(=O)NCC2CCCCC2)CC1 [Compound 136] | 6500
N[C@@H](Cc1ccco1)C(=O)N1CCC(Cc2ccc(-c3ccccc3)cc2)(C(=O)NC2CCCCC2)CC1 [Compound 37] | 230
N[C@@H](Cc1cccs1)C(=O)N1CCC(C(=O)NCC2CCOCC2)(c2ccccc2)CC1 [Compound 104] | 76
N[C@@H](Cc1c[nH]cn1)C(=O)N1CCC(Cc2ccc([N+](=O)[O-])cc2)(C(=O)NC2CCCCC2)CC1 [Compound 79] | 620
N[C@@H](Cc1cccs1)C(=O)N1CCC(Cc2ccc(-c3ccc(C(F)(F)F)cc3)cc2)(C(=O)NC2CCCCC2)CC1 [Compound 53] | 140
N[C@@H](Cc1cccs1)C(=O)N1CCC(Cc2ccc(-c3cccnc3)cc2)(C(=O)NC2CCCCC2)CC1 [Compound 50] | 35
CC[C@H](N)C(=O)N1CCC(Cc2ccc(Cl)cc2)(C(=O)OCC2CCCCC2)CC1 [Compound 13] | 4300
CC[C@H](N)C(=O)N1CCC(Cc2cccc(OC)c2)(C(=O)NC2CCCCC2)CC1 [Compound 83] | 9500
N[C@@H](Cc1cccs1)C(=O)N1CCC(Cc2cccc(-c3cccc(C(=O)O)c3)c2)(C(=O)NC2CCCCC2)CC1 [Compound 101] | 140
N[C@@H](Cc1cccs1)C(=O)N1CCC(Cc2ccc(-c3ccc(C(=O)O)cc3)cc2)(C(=O)NC2CCCCC2)CC1 [Compound 52] | 100

Structure (SMILES) | IC50 [nM]
N[C@@H](Cc1cccs1)C(=O)N1CCC(Cc2ccc(-c3ccccc3)cc2)(C(=O)N2CCCCC2)CC1 [Compound 4] | 430
COC(=O)C1(Cc2ccc(-c3ccccc3)cc2)CCN(C(=O)[C@@H](N)Cc2cccs2)CC1 [Compound 1] | 1800
N[C@@H](Cc1c[nH]cn1)C(=O)N1CCC(Cc2cccnc2)(C(=O)OCC2CCCCC2)CC1 [Compound 25] | 1800
N[C@@H](Cc1cccs1)C(=O)N1CCC(Cc2cccnc2)(C(=O)OCC2CCCCC2)CC1 [Compound 24] | 99
CC[C@H](N)C(=O)N1CCC(C(=O)NC2CCCCC2)(c2ccccc2)CC1 [Compound 70] | 9400
N[C@@H](Cc1cccs1)C(=O)N1CCC(Cc2cccc(I)c2)(C(=O)NC2CCCCC2)CC1 [Compound 96] | 84
CC(=O)Nc1cccc(-c2ccc(CC3(C(=O)NC4CCCCC4)CCN(C(=O)[C@@H](N)Cc4cccs4)CC3)cc2)c1 [Compound 54] | 31
N#Cc1ccc(CC2(C(=O)OCC3CCCCC3)CCN(C(=O)[C@@H](N)Cc3c[nH]cn3)CC2)cc1 [Compound 16] | 1200
CCSCC[C@H](N)C(=O)N1CCC(Cc2ccc(-c3ccccc3)cc2)(C(=O)NCC2CCCCC2)CC1 [Compound 106] | 5600
N[C@@H](Cc1cccs1)C(=O)N1CCC(Cc2ccc(F)cc2F)(C(=O)OCC2CCCCC2)CC1 [Compound 27] | 220
N[C@@H](Cc1cccs1)C(=O)N1CCC(Cc2ccc(-c3nnn[nH]3)cc2)(C(=O)NCC2CCCCC2)CC1 [Compound 127] | 83
N[C@@H](Cc1cccs1)C(=O)N1CCC(Cc2cccnc2)(C(=O)NC2CCCCC2)CC1 [Compound 66] | 54
NC(=O)c1ccc(CC2(C(=O)NC3CCCCC3)CCN(C(=O)[C@@H](N)Cc3cccs3)CC2)cc1 [Compound 61] | 47
N[C@@H](Cc1cccs1)C(=O)N1CCC(Cc2ccc(-c3ccccc3)cc2)(C(=O)NCC2CCCCC2)CC1 [Compound 3, (S)-1-(2-amino-3-(thiophen-2-yl)propanoyl)-4-(biphenyl-4-ylmethyl)-N-(cyclohexylmethyl)piperidine-4-carboxamide hydrochloride] | 84
N#Cc1ccccc1CC1(C(=O)NC2CCCCC2)CCN(C(=O)[C@@H](N)Cc2cccs2)CC1 [Compound 82] | 110
N[C@@H](Cc1cccs1)C(=O)N1CCC(Cc2ccc(I)cc2)(C(=O)NC2CCCCC2)CC1 [Compound 41] | 37
N[C@@H](Cc1cccs1)C(=O)N1CCC(Cc2ccncc2)(C(=O)NCC2CCOCC2)CC1 [Compound 121] | 130
CC[C@H](N)C(=O)N1CCC(Cc2ccc(F)cc2F)(C(=O)OCC2CCCCC2)CC1 [Compound 26] | 6100
Nc1ccc(CC2(C(=O)NC3CCCCC3)CCN(C(=O)[C@@H](N)Cc3cccs3)CC2)cc1 [Compound 95] | 63
N[C@@H](Cc1c[nH]cn1)C(=O)N1CCC(Cc2ccc(-c3ccccc3)cc2)(C(=O)NCC2CCCCC2)CC1 [Compound 9] | 930
N#CC[C@H](N)C(=O)N1CCC(Cc2ccc(-c3ccccc3)cc2)(C(=O)NC2CCCCC2)CC1 [Compound 36] | 600
CN(CC1CCCCC1)C(=O)C1(c2ccccc2)CCN(C(=O)[C@@H](N)Cc2cccs2)CC1 [Compound 134] | 16
N[C@@H](Cc1cccs1)C(=O)N1CCC(C(=O)NC2CCCCC2)(c2ccccc2)CC1 [Compound 69] | 73
